Measured values published in publication PMC9953095, “Design, Synthesis and Biological Evaluation of Quinazolinamine Derivatives as Breast Cancer Resistance Protein and P-Glycoprotein Inhibitors with Improved Metabolic Stability” (Biomolecules, 2023).

Columns and labels:
[1] = test system: BCRP localization in H460/MX20 cells; assay: Immunofluorescence assay of BCRP localization in H460/MX20 cells; type: cell-based, human; settings: 5 μM for 24, 48, and 72 h, Figure 8A,C
Description: (§1) For immunofluorescence analysis, parental and drug-resistant cells were seeded in 24-well plates at 10,000–20,000 cells/well and incubated for 24 h. The cells were incubated with or without cyclopropyl quinazolinamine 22 or azide quinazolinamine 33 for 24 h, 48 h, and 72 h. Thereafter, cells were washed with PBS and fixed with 4% paraformaldehyde for 10 min at room temperature and then rinsed with PBS twice, followed by permeabilization with 1% Triton X-100 for 10 min at 4 °C. The cells were again washed twice with PBS, and then blocked with 6% BSA for 1 h at 37 °C. Fixed cells were incubated with monoclonal antibody against the BCRP protein (BXP 21) (Sigma-Aldrich, Inc., St. Louis, MO) (1:1000) or P-gp (F4) (Sigma-Aldrich, Inc., St. Louis, MO, USA) overnight at 4 °C, followed by two washes with PBS. The cells were then further incubated with Alexa flour 488 goat anti-mouse IgG (1:1000) (Abcam plc.) for 2 h at 37 °C. After the cells were washed twice with PBS, 4′,6-diamidino-2-phenylindole (DAPI) (2 µg/mL) was used for nuclear counterstaining. The immunofluorescence images were generated using a Nikon TE-2000S fluorescence microscope (Nikon Instruments Inc, Melville, NY, USA).

[2] = test system: P-gp localization in KB-C2 cells; assay: Immunofluorescence assay of P-gp localization in KB-C2 cells; type: cell-based, human; settings: Figure 8B
Description: as §1

BCRP ATPase = molecular target: T1, BCRP ATPase (Homo sapiens, UniProt Q9UNQ0); assay: Vanadate-sensitive BCRP ATPase assay; type: biochemical; settings: membrane vesicles of High Five insect cells; Figure 10A,B
T1 construct: host or cells: High Five insect cells (membrane vesicles)
T1 sequence (Q9UNQ0 1-655): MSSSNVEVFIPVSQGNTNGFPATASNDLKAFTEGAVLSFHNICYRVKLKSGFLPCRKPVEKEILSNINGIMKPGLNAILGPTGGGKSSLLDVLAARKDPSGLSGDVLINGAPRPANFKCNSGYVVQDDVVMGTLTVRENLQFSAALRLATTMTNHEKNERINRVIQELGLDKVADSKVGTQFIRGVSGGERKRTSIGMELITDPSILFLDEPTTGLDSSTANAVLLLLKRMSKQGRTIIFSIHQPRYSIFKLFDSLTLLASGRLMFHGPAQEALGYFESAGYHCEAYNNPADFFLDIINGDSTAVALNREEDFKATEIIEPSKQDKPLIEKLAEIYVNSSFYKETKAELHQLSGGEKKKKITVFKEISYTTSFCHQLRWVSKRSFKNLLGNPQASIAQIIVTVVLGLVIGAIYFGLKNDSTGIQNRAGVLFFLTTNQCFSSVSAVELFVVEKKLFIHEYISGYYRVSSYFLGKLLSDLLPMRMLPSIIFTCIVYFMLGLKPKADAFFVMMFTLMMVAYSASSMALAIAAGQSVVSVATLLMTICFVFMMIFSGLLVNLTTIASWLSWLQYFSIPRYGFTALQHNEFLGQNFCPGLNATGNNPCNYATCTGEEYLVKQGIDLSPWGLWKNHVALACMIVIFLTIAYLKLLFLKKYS
Description: The vanadate (Vi)-sensitive ATPase activity of BCRP and P-gp in the membrane vesicles of High Five insect cells was measured as described previously. The results were presented as vanadate-sensitive ATPase activities by determining the difference in inorganic phosphate liberation measured in the presence and absence of sodium orthovanadate.

## c1ccc2c(Nc3ccc(C4CC4)cc3)nc(-c3ccncc3)nc2c1 [Compound 22, N-(4-Cyclopropylphenyl)-2-(pyridin-4-yl)quinazolin-4-amine]
[1]
  BCRP fluorescence on the membranes / intracellular localization of BCRP: decreased gradually
[2]; 5 μM at 72 h
  P-gp fluorescence on the membranes: decreased slightly
[2]; 5 μM for 24 and 48 h
  P-gp fluorescence on the membranes: did not decrease significantly
BCRP ATPase
  effect on Vi-sensitive BCRP ATPase activity (ATP hydrolysis): significantly stimulated
